Reference: PMC9375521 (Protein Science : A Publication of the Protein Society, 2022)

Target: SARS‐CoV‐2 nsp10–nsp16 complex (Severe acute respiratory syndrome coronavirus 2, UniProt P0DTD1)
Test: nsp10–nsp16 radiometric MTase assay, IC50 determination
Assay type: biochemical

SMILES: Nc1ncnc2c1ncn2[C@@H]1O[C@H](CSCC[C@H](N)C(=O)O)[C@@H](O)[C@H]1O [SAH, S‐adenosylhomocysteine]
- IC50: 2.2 ± 0.2 µM
- Hill slope (radiometric assay, mean ± SD, N = 3): 0.6 ± 0.1
